Measured values taken from the METLIN SMRT retention time set (Domingo-Almenara et al. 2019).

Assay: gradient 5% acetonitrile 3 min, to 50% in 2 min, to 85% in 15 min, held 3 min, 100 µL/min
Conditions: column: Zorbax Extend-C18 2.1 x 50 mm; eluents: water / acetonitrile, 0.1% formic acid
Summary of the method: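 Values are retention times taken from adduct peaks that software picked and an analyst inspected. The pure standards were run as mixtures of ~100 molecules on HPLC linked to a quadrupole time-of-flight mass spectrometer, in positive and negative ionization mode. A Zorbax Extend-C18 column (2.1 × 50 mm, 1.8 μm) was used at 100 μL/min with water and acetonitrile, each including 0.1% formic acid.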

Point of comparison: O=C(CC1CCCCC1)NCC(=O)Nc1nc2ccccc2[nH]1, RP-LC retention time 661 s. Against it:
- CC(C)NC(=O)N1CCCC1c1noc(COc2ccc(F)cc2)n1 (centres undefined) — higher, 799 s
- COc1cc(=O)n(-c2ccccc2C)nc1C(=O)Nc1ccc(OC(F)(F)F)cc1 — higher, 880 s
- Cc1ccc(CNC(=O)C2(C)CCCN(C(=O)Nc3cccc(F)c3)C2)cc1 (centres undefined) — higher, 967 s
- O=C1Nc2ccccc2SC1C(=O)N1CCC(C(=O)N2CCN(c3ccccc3)CC2)CC1 (centres undefined) — higher, 766 s
- CCOC(=O)c1nnc2c(-c3ccccc3OC)c(C)nn2c1C — higher, 924 s
- CN(C)C(=O)c1ccc2c(c1)nc(CN(C)C(=O)Nc1ccc(Cl)cc1)n2C — lower, 616 s
- CCC1CCCCN1CCCNC(=O)Cn1c(=O)c2cccn2c2ccc(F)cc21 (centres undefined) — lower, 641 s
- CC(C)NC(=O)c1ccc2c(c1)N(S(C)(=O)=O)CC2 — higher, 691 s
- COC(=O)c1ccccc1NC(=O)Cn1c(-c2nonc2N)nc2ccccc21 — higher, 993 s
- CCCC(=O)Nc1ccc2c(c1)CN(C(=O)C1CC1)C(C(=O)N(C)C)C2 (centres undefined) — higher, 709 s
- CCOC(=O)c1c(S(=O)(=O)N2CCC(C(=O)Nc3cccc(C)n3)CC2)c(C)n(C)c1C — higher, 701 s
- COCCN1CN=C(Nc2nc(C)c3ccccc3n2)NC1 — lower, 589 s
- CCCNC(=O)c1cc(=O)[nH]c2c(Cl)cccc12 — higher, 1080 s
- Cc1ccccc1CNC(=O)C1(C)Oc2cccnc2NC1=O (centres undefined) — higher, 702 s
- Cc1ccc(C(=O)N(CC(=O)N(Cc2ccco2)CC2CCCO2)C(C)(C)C)cc1 (centres undefined) — higher, 907 s
- CCc1nc2onc(C)c2c(=O)n1CC(=O)NCCCc1ccccc1 — higher, 844 s
- CCCCn1c(=O)c2ccccc2n(Cc2nc(-c3ccc(OCC)c(OC)c3)no2)c1=O — higher, 968 s
- O=C(Nc1ccc(SCc2ccccc2F)nn1)c1cccs1 — higher, 942 s
- COC(=O)c1cc2n(n1)CC(C)(C(=O)NC1CCCCC1)N(c1ccc(F)cc1)C2=O (centres undefined) — higher, 847 s
- Cc1cc(NC(=O)Nc2cc(F)ccc2F)no1 — higher, 894 s
- O=C(CSc1nc2ccsc2c(=O)n1-c1ccc(F)cc1)Nc1ncn[nH]1 — higher, 667 s
- COc1cccc2c1oc(=O)c1c(NC(C)=O)nc3c(c12)CCCCC3 — higher, 1020 s
- COc1ccc(-c2cn3c(CC(=O)NCc4cccc(Br)c4)csc3n2)cc1 — higher, 811 s
- CC1CC(=O)c2cnc(N3CCN(c4ccc(F)cc4)CC3)nc2C1 (centres undefined) — higher, 1080 s
- CCCCNC(=O)c1cn(CCC)nc1S(=O)(=O)N1CCN(c2ccccc2OCC)CC1 — higher, 1140 s
- CCOc1ccccc1C(=O)Nc1c(C(=O)Nc2ccccc2F)oc2cccnc12 — higher, 841 s
- CCCN1C(=O)COc2ccc(-c3csc(NC(=O)C4CCCO4)n3)cc21 (centres undefined) — higher, 896 s
- COc1ccccc1-c1nc2nccc(-c3ccc4c(c3)OCCCO4)n2n1 — higher, 888 s
- CCOc1ccccc1-c1noc(Cn2c(=O)n(Cc3ccc(OC)cc3)c(=O)c3sccc32)n1 — higher, 1080 s
- CCN1C(=O)COc2ccc(-c3noc(-c4ccc(C)c(C)c4)n3)cc21 — higher, 1300 s
- CC(=O)OC[C@]12CCC(C)=C[C@H]1O[C@@H]1[C@H](O)[C@@H](OC(C)=O)[C@@]2(C)[C@@]12CO2 — higher, 750 s
- O=C(Nc1ccc(-c2nc(-c3ccccc3)no2)cc1)c1ccc(Br)o1 — higher, 1180 s
- NC(=O)c1cc[nH]c1C1CCCN(Cc2ccc(Br)o2)C1 (centres undefined) — lower, 594 s
- CCOc1ccc(-c2nc(-c3ccc4c(c3)oc(=O)n4C)no2)cc1 — higher, 1130 s
- Cc1ccc2c(=O)c(C(=O)N3CCCC3)cn(CC(=O)Nc3ccc(F)c(F)c3)c2n1 — higher, 720 s
- COc1ccc2[nH]c(C(=O)N3CCN(C(=O)c4ccc(Br)o4)CC3)cc2c1 — higher, 784 s
- CCOCCCNC(=O)C1CCCN(C(=O)c2cc(C)cc(C)c2)C1 (centres undefined) — higher, 743 s
- O=C(Nc1c(-c2ccccc2)nc2ccccn12)c1ccco1 — lower, 598 s
- CC(C)OCCCNC(=O)c1c2c(cn(-c3ccc(F)cc3)c1=O)C(=O)CC(C)(C)C2 — higher, 885 s
- O=C(c1ccc(F)c(Cl)c1)N1CCN=C1N1CCCCC1 — higher, 673 s
- CN1C2CCC1CC(OC(=O)C(O)c1ccccc1)C2 (centres undefined) — higher, 794 s
- Cc1cccc(-c2nnc(-c3nc(NCc4cccnc4)c4ccccc4n3)o2)c1 — higher, 691 s
- COCCn1cc(C(=O)Nc2cccc(C(C)=O)c2)c2nn(-c3ccccc3)c(=O)c-2c1 — higher, 812 s
- Cc1ccc(Nc2c(-c3nc(C)no3)cnc3nc(C)ccc23)c(C)c1 — higher, 825 s
- CCC(=O)N1CCc2cc(N3CC(C(=O)NC(C)CC)CC3=O)ccc21 (centres undefined) — higher, 669 s
- O=C(Cc1nnc2cc(-c3nc(C4CC4)no3)ccn12)NCC1CC1 — higher, 820 s
- O=C(NC1CC1)C1CCc2sc(C(=O)N3CCCCCC3)cc2C1 (centres undefined) — higher, 736 s
- COc1ccc(-c2cc3nn(CC(=O)NCc4ccc(F)cc4)c(=O)n3c(C)n2)cc1 — higher, 880 s
- CSc1cccc(NC(=O)C2CCN(S(=O)(=O)c3ccc(-c4noc(C5CC5)n4)cc3)CC2)c1 — higher, 1100 s
- Cc1c(C(=O)C(=O)N2CCc3ccccc3C2)c2ccccc2n1C — higher, 913 s
- CC(=O)Nc1nnc(SCc2nnc(-c3ccccc3C)o2)s1 — higher, 740 s
- COc1cccc(CCN2CC(=O)N(c3cccc(C)c3)[C@@H]3CS(=O)(=O)C[C@@H]32)c1 — higher, 849 s
- COc1nc2ccccc2nc1N1CCCC(C(=O)N2CCN(c3ccccc3Cl)CC2)C1 (centres undefined) — higher, 1360 s
- COc1cccc2c(C)nc(NC3=NCN(Cc4cccnc4)CN3)nc12 — lower, 567 s
- COC(=O)C1=CN(c2ccc(C)cc2)c2cc(F)ccc2S1(=O)=O — higher, 946 s
- CN(C)S(=O)(=O)c1ccc2c(c1)N(CC(=O)NCCCc1ccccc1)C(=O)C1CCCCN21 (centres undefined) — higher, 955 s
- Cc1ccc(NC(=O)C2CCCN(S(=O)(=O)c3cc(-c4noc(C)n4)cs3)C2)c(C)c1 (centres undefined) — higher, 983 s
- CCOCc1nc(C2CCCN2C(=O)c2ccsc2)no1 (centres undefined) — higher, 724 s
- CCN1C(=O)COc2ccc(-c3noc(-c4cccc(OC)c4OC)n3)cc21 — higher, 1060 s
- O=C(NCc1cccc(F)c1)C1CCCN(c2cnc3nccnc3c2)C1 (centres undefined) — higher, 702 s
- CC1CCc2onc(C(=O)N(CCC#N)c3ccccc3)c2C1 (centres undefined) — higher, 945 s
- CC(C)CCNC(=O)C1CCCN(c2ncnc3c2oc2ccccc23)C1 (centres undefined) — higher, 786 s
- CC1CCN(S(=O)(=O)c2ccc(-c3nnc(C(=O)NCCN4CCCC4)o3)cc2)CC1 — higher, 686 s
- COc1ccc(-c2nc(Nc3c(C)n[nH]c3C)sc2C)cc1 — lower, 630 s
- CCNC(=O)NS(=O)(=O)c1sc(CC(C)C)cc1-c1ccc(Cn2c(-c3ccccc3)nc(OC)c2C=O)cc1 — higher, 1280 s
- Cc1cc(F)ccc1NC(=O)C1CCN(C(=O)c2ncn3c2COC(c2ccc(F)cc2)C3)CC1 (centres undefined) — higher, 736 s
- CCc1nnc2nc(N3CCN(C(=O)COc4ccc(Cl)cc4)CC3)cc(C)n12 — lower, 648 s
- Cc1sc(-c2cc(C(F)(F)F)on2)cc1S(=O)(=O)Nc1ccc2c(c1)OCCO2 — higher, 1070 s
- O=C1C(N2CCN(S(=O)(=O)c3ccc(Cl)s3)CC2)CCN1Cc1ccccn1 (centres undefined) — lower, 613 s
- Cc1ccc(C(N)=Nc2ccccc2)cc1 — lower, 650 s
- COc1cccc(C(=O)N2CCC3(C2)C(=O)N(C)c2ccccc23)c1OC (centres undefined) — higher, 749 s
- CN1CCC(Nc2ncc3ncnc(Nc4ccc(F)c(Cl)c4)c3n2)CC1 — higher, 710 s
- CCCCOc1ccc(-c2cc3c4nnc(CCC(=O)N5CCC(C(N)=O)CC5)n4ccn3n2)cc1 — higher, 729 s
- O=C(c1cn(-c2cc(Nc3ccccc3)ncn2)cn1)N1CCN(c2ncccn2)CC1 — higher, 749 s
- Fc1cccc(-c2nnc(Cc3nc(-c4ccc5c(c4)OCO5)no3)o2)c1 — higher, 958 s
- CCOC(=O)CNC(=O)N1CCN(Cc2nc3cc(-c4ccccc4)ccc3o2)CC1 — lower, 601 s
- CCCN1CCN(C(=O)C2=Cc3cc(-c4ccccc4)ccc3OC2)CC1 — higher, 714 s
- Cc1ccc(-c2nc3ncccn3c2Nc2cc(C)cc(C)c2)cc1 — higher, 866 s
- COc1ccccc1C(=O)N1CCc2c(c(-c3nnc(-c4ccccc4Cl)o3)nn2C)C1 — higher, 806 s
- O=[N+]([O-])c1c(NCCCO)cc(NCc2ccc3c(c2)OCO3)c2nonc12 — higher, 668 s
- Cc1ccccc1S(=O)(=O)N1CCC(CCC(=O)N2CCc3ccccc3C2)CC1 — higher, 1060 s
- CC(C)c1csc(-c2csc(S(=O)(=O)NCc3ccc(Br)cc3)c2)n1 — higher, 1190 s
- COC(=O)c1ccc2c(c1)nnn2Cc1cccc(OC)c1 — higher, 880 s
- CCN1C(=O)Cc2cc(C(=O)NCc3cccs3)ccc21 — higher, 704 s
- CCN1C(=O)COc2ccc(-c3noc(C4CC(=O)N(c5cccc(Cl)c5)C4)n3)cc21 (centres undefined) — higher, 1010 s
- Cc1cc(=O)n(CC(=O)Nc2ccc(Br)cc2)c(N2CCCCC2)n1 — higher, 716 s
- COc1ccc(N2CCN(c3cc(SCC(=O)Nc4ccc(Cl)cc4F)ncn3)CC2)cc1 — higher, 1090 s
- Cc1cc(C)c2sc(NC(=O)C3=COCCO3)nc2c1 — higher, 895 s
